From patent US12673052B2, “Combinations for the treatment of cancer” (Exelixis, Inc., priority 2020, dated 2026)
Values joined by “and” are separate entries in the source; they are usually repeats but may differ in a detail not shown here. Identical values can stand only once.

Tests used:
[1] = system: CT26 colon carcinoma cells; experiment: Efficacy after oral dosing in CT26 tumor bearing female Balb/c mice; format: in vivo
Excerpt: In this study, the inhibitory effects of Compound 1 as a single agent and in combination with an anti-PD-1 inhibitor in Balb/c mice grafted with CT26 colon carcinoma cells were studied. CT26 cells inoculated into syngeneic mice are highly tumorigenic (Brattain et al. 1980) and share molecular features with undifferentiated, invasive human colorectal carcinoma cells (Castle et al. 2014). Therefore, the CT26 cell line can serve as a valid cellular model for the metastatic and poorly differentiated human colorectal cancer. Moreover, this model has been reported to express significant levels of RTKs, indicating a potential reliance on these signaling pathway for the maintenance of a tumorigenic phenotype in vivo (Pryzybyszewska et al. 2017).
CT26 colon carcinoma cells (ATCC, CRL-2638) were thawed from the Exelixis pharmacology cell bank into T-75 flasks (Corning, 43064U) using fresh culture medium, ie, RPMI-1640 containing 10% fetal bovine serum (GIBCO, A384002). […]
Oral doses were administered via a […], 1.5″ stainless steel needle with silicone tip (VWR, 20068-666). […] Survival was monitored for a maximum of 40 days. […]
All animals were measured twice a week for tumor volume and body weight using Studylog software.
Significance values represent differences in comparison to vehicle or anti-PD-1 treatment groups and were determined using a nonparametric Mann-Whitney U-test. […]

SNU-5 = experiment: Tumor growth inhibition in xenograft model; format: in vivo, CB.17 SCID mice
Description: Three human tumor cell lines, NCI-H441, MDA-MB-231, and SNU-5, were selected for use in tumor xenograft studies using athymic nude, NSG and CB.17 SCID mice, respectively. Pharmacodynamic modulation of MET phosphorylation was also measured in the NCI-H441 and SNU-5 xenografts. Tumor-bearing mice were orally dosed once-daily for 14 days (qd×14), and the tumors were resected and processed for MET phosphorylation analysis by Western blot. […]

[2] = In vitro plasma protein binding; format: in vitro ADME, monkey
Description: Plasma PK of Compound 1 was characterized in rats and beagle dogs. Toxicokinetic (TK) evaluations of oral Compound 1 were evaluated in repeat-dose studies in rats and dogs. Plasma protein binding was determined in mouse, rat, dog, monkey, and human plasma in vitro. Biotransformation and metabolite profiling of Compound 1 were investigated in vitro using mouse, rat, dog, monkey, and human liver microsomal fractions and hepatocytes and in vivo in rats and dogs. P-glycoprotein (P-gp) and breast cancer resistance protein (BCRP) transporter interaction studies, in vitro experiments evaluating cytochrome P450 (CYP) induction and inhibition by Compound 1, and CYP and glucuronosyltransferase (UGT) substrate specificity studies of Compound 1 were also performed.
Compound 1 (10 μM) was 97.2 and 97.5% protein bound in monkey and human plasma, respectively.

[3] = GLP safety pharmacology: cardiovascular, telemeterized dogs; format: in vivo
Description: The nonclinical toxicity of Compound 1 was characterized in dose range-finding 7-day and definitive 28-day repeat-dose studies in rats and dogs, and in in vitro bacterial and mammalian genotoxicity bioassays. Compound 1 was also evaluated in definitive neurobehavioral, respiratory and cardiovascular safety pharmacology studies.

hERG channel = hERG channel (Homo sapiens, UniProt Q12809); experiment: In vitro hERG channel inhibition; format: cell-based
hERG channel, sequence (Q12809 whole entry): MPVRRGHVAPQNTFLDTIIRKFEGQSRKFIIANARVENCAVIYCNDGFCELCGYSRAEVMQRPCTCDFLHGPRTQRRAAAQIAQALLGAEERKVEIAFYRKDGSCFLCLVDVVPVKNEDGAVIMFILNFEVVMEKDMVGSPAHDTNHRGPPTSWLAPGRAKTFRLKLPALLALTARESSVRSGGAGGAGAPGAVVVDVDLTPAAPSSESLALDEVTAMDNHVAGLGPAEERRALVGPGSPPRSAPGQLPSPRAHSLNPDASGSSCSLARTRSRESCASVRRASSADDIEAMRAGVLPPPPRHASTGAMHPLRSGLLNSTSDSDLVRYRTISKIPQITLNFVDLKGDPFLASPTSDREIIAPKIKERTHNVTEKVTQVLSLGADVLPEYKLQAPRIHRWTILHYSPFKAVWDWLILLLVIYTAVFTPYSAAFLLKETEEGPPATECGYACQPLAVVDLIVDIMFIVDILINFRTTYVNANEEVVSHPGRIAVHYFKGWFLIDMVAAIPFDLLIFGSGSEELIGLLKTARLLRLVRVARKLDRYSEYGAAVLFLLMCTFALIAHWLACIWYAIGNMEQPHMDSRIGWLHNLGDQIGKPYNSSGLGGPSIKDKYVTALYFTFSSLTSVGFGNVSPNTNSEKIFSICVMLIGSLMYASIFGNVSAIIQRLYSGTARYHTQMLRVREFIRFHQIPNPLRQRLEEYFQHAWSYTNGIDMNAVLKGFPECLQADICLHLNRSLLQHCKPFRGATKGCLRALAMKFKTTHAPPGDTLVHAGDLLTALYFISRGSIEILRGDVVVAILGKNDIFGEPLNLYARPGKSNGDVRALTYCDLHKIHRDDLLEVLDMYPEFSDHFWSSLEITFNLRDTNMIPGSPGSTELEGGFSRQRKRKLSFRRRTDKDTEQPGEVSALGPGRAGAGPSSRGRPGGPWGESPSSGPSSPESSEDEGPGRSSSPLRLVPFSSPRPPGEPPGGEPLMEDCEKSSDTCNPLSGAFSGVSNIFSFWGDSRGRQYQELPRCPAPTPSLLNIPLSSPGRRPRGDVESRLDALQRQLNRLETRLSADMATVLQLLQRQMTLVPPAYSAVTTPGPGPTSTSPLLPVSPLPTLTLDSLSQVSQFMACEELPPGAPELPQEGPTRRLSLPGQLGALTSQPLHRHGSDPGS

[4] = system: primary human macrophages; experiment: Macrophage re-polarization: primary CD14+ monocytes cultured in M2 polarizing conditions; format: cell-based; details: donor (A, H, L, D, B), Donor A and B n = 1
Description: The TAM RTKs play an important role in balancing the functions of M1 and M2 macrophage subsets. Compound 1 was tested for inhibition against primary CD14+ monocytes cultured in M2 polarizing conditions. A dose dependent polarization of the monocytes to pro-inflammatory M1 macrophages across cells from all tested donors was observed (Table 4).

MER = MER (Homo sapiens, UniProt Q12866); experiment: RTK autophosphorylation ELISA, 293A cells transfected with receptor expression vector; format: cell-based; design: expressed in transfected cells; host or cells: 293A; details: no ligand, read-out: Cellular IC50
MER, sequence (Q12866 21-999): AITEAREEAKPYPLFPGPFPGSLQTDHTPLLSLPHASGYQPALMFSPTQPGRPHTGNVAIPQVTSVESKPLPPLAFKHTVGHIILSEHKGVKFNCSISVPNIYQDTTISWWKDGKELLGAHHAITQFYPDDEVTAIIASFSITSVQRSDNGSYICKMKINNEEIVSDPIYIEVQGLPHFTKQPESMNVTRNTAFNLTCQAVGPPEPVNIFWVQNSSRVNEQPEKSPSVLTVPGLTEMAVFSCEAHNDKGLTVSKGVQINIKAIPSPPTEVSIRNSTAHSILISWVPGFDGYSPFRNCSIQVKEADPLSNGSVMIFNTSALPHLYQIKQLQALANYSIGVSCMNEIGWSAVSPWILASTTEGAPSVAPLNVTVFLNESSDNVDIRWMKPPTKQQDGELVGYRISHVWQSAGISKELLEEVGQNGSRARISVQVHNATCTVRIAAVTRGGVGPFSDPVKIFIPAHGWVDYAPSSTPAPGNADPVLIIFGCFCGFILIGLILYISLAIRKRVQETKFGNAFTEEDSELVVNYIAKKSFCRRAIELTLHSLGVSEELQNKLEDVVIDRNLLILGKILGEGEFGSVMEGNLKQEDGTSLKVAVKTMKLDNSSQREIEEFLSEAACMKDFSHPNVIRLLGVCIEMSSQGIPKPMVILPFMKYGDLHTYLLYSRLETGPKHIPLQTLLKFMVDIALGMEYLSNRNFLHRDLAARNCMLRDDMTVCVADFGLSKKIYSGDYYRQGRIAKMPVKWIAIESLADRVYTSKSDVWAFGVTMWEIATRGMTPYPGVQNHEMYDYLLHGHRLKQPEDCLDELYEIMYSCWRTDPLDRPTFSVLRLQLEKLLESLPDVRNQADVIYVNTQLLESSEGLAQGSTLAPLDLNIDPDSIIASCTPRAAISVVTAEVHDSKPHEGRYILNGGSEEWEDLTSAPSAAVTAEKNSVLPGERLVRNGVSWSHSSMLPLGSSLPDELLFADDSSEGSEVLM
Description: The activity of Compound 1 was evaluated in cell-based assays that assessed the mechanistic effects of the compound in tumor and normal cells. Consistent with the biochemical data, Compound 1 is a potent inhibitor of cellular RTKs as assessed by analysis of receptor autophosphorylation as measured by enzyme-linked immunosorbent assay. Assays were performed using cell lines (PC-3, HUVEC, and A-172) stimulated with ligands to their respective receptors to induce autophosphorylation (MET, VEGFR2, and AXL) or a cell line (293A) transfected with an expression vector encoding the receptor of interest (MER). Inhibition of endogenous phosphorylated MET by Compound 1 in Hs 746T gastric carcinoma cells was also investigated due to the presence of the skip-splice mutation of exon 14 in the MET gene. This MET exon 14 alteration leads to increased MET stability and oncogenic activation, including constitutive MET phosphorylation. Also this mutation is known to occur in 3% of lung adenocarcinoma patients and to be sensitive to MET-targeted therapies (Frampton et al 2015).

Q: For CNC(=O)c1cc2c(Oc3ccc(NC(=O)C4(C(=O)Nc5ccc(F)cc5)CC4)cc3)ccnc2cc1OC [Compound 1, 1-N′-(4-Fluorophenvl)-1-N-[4-[7-methoxy-6-(methylcarbamovl)quinolin-4-yl]oxyphenyl]cyclopropane-1,1-dicarboxamide], which “survival (Kaplan Meier)” value ([1]; 40-day dosing, P<0.0001 Compound 1 vs vehicle, P<0.0001 combination vs aPD-1 alone, P<0.05 combination vs Compound 1) is on record?
A: The value was “Survival benefit and dose response”.

Q: And the tumor growth ([1]; single agent 1, 3, 10, and 30 mg/kg/day for 40 days)?
A: The tumor growth was “tumor growth delay”.

Q: What about the “TGI (%)” value (SNU-5; 3 mg/kg qd × 14 oral, p-value 0.0052) of the same compound?
A: The value was 54.2%.

Q: What about the “TGI (%)” value (SNU-5; 10 mg/kg qd × 14 oral, p-value <0.0001) of the same compound?
A: The value was 94.7%.

Q: And the protein bound ([2]; 10 μM)?
A: The protein bound was 97.2%.

Q: And the fraction unbound ([2]; monkey, plasma, 0.2 and 1 μM)?
A: Its fraction unbound is under 0.01.

Q: What about the “plasma Cmax relative to hERG channel IC50” value ([3]; 18 mg/kg single dose, Cmax higher than IC50) of the same compound?
A: The value was “approximately 2 fold”.

Q: And the Cmax ([3]; dog, plasma, oral, single dose 18 mg/kg, male telemeterized dogs)?
A: Its Cmax is about 7 µM.

Q: What about the QTc interval ([3]; male telemeterized dogs, single doses as high as 18 mg/kg) of the same compound?
A: The QTc interval was “no QTc interval prolongation”.

Q: What about the “effect on cardiovascular parameters” value ([3]; single oral doses as high as 18 mg/kg, through 18 hours postdose) of the same compound?
A: The value was “no significant effect on cardiovascular parameters”.

Q: And the IC50 (hERG channel)?
A: The IC50 was about 4000 nM.

Q: What about the “M1/M2 Ratio, Fold Change Relative to DMSO (n = 2)” value ([4]; 2 uM) of the same compound?
A: Its value is 1.3 ± 2.6 and 1.7 (2×) and 1.0 ± 2.6 and 2.2 ± 1.1.

Q: And the “M1/M2 Ratio, Fold Change Relative to DMSO (n = 2)” value ([4]; 4 uM)?
A: The value was 3.6 ± 1.2 and 4.1 and 3.3 and 3.7 ± 1.2 and 3.4 ± 1.4.

Q: What about the “M1/M2 Ratio, Fold Change Relative to DMSO (n = 2)” value ([4]; 6 uM) of the same compound?
A: The value was 3.5 ± 1.2 and 4.0 and 4.6 and 4.5 ± 1.0 and 4.6 ± 1.7.

Q: What about the IC50 (MER) of the same compound?
A: Its IC50 is 7.1 nM.
